A word on the Papp A→B: it is the apparent permeability from the apical to the basolateral side of a cell layer. Lower therefore signals poor permeation. One may read the Papp B→A as the apparent permeability from the basolateral to the apical side of a cell layer. As a reminder, the AUC(0-inf) is the area under the concentration-time curve extrapolated to infinity. In general, Cmax refers to the highest concentration seen after dosing. As a reminder, the half-life is the time needed for the level to fall by half in the phase considered. One may read the efflux ratio as a quotient of directional permeabilities that is used to spot active efflux.

Structures are written as SMILES. Where a name gives a salt, the structure may show the parent alone. Read-outs that look alike come from different tables or passages of the source. Some results are limits rather than exact numbers.

The values that follow come from US20240216357A1 (SICHUAN HUIYU PHARMACEUTICAL CO., LTD., priority 2021, published 2024).

One series is described as follows: Caco-2 permeability test. The conditions noted are these: human, Caco-2.
Series [1] deals with T1, CYP3A4 (Homo sapiens (Human), UniProt P08684). Briefly: CYP 450 enzyme inhibition test (mixed human liver microsomes, LC-MS/MS).
T1 sequence (P08684 whole entry): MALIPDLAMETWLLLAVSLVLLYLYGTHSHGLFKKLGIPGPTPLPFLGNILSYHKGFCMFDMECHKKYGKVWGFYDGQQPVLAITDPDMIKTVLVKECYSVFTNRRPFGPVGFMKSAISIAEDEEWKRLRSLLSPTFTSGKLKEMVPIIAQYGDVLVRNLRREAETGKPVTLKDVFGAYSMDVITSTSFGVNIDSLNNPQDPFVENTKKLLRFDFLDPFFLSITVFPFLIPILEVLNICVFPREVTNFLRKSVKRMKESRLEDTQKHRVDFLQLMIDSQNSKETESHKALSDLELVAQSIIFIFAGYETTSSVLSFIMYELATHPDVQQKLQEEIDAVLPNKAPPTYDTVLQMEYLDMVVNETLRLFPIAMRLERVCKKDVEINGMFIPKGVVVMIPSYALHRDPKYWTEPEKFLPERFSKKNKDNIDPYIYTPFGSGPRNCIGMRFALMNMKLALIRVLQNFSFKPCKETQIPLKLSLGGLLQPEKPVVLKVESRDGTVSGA
A further series can be described thus: Rat PK test (IV and PO). The conditions noted are these: for Cl / F: Male SD rats; for F: PO vs IV; for AUC(0-inf) / Cmax / half-life / Vd: male, SD, rat, plasma; for Vd: intravenous.
The target of a further series is LSD1 (Homo sapiens (Human), UniProt O60341). Nature of the series: LSD1 enzyme activity detection (HTRF). The conditions noted are these: HTRF, H3K4me1 substrate; read-out: Inhibition of enzymatic activity of LSD1 IC50. The format is biochemical. (TR-FRET usually uses a lanthanide donor and a delayed reading to cut background.)
Series [2] concerns the target T1, CYP3A4. The conditions noted are these: microsomes.
The subject of a further series is NCI-H1417 cells. Nature of the series: In vitro cell proliferation detection (CellTiter-Glo, 7 days). The format is cell-based. The conditions noted are these: NCI-H1417 cells, 7 days, CellTiter-Glo, read-out: NCI-H1417 proliferation inhibition IC50. A general note: In ATP-based viability assays light output follows the ATP content of the culture.
The nature of the next series: in vitro. The conditions noted are these: human, Caco-2.
A further series deals with Caco-2 cells. Briefly: Caco-2 permeability test. The conditions noted are these: for Mean Papp A to B: Caco-2, A to B; for Mean Papp A to B / Mean Papp B to A: 120 min; for Mean Papp B to A: Caco-2, B to A.
Series [3] addresses T2, voltage-gated potassium ion channel hERG (Homo sapiens (Human), UniProt Q12809). Briefly: hERG inhibition test (manual patch-clamp).
Series [4] deals with T2, voltage-gated potassium ion channel hERG.
The conditions of series [5]: rat, in vivo.
Another series is described as follows: in vivo. The conditions noted are these: male, SD, rat.
The mark [6] stands for this setting: read-out: CYP3A4-T IC50, mixed human liver microsomes, NADPH, CYP3A4-T probe substrate.
The mark [7] stands for this setting: read-out: hERG IC50, manual patch-clamp.

T2 sequence (Q12809 whole entry): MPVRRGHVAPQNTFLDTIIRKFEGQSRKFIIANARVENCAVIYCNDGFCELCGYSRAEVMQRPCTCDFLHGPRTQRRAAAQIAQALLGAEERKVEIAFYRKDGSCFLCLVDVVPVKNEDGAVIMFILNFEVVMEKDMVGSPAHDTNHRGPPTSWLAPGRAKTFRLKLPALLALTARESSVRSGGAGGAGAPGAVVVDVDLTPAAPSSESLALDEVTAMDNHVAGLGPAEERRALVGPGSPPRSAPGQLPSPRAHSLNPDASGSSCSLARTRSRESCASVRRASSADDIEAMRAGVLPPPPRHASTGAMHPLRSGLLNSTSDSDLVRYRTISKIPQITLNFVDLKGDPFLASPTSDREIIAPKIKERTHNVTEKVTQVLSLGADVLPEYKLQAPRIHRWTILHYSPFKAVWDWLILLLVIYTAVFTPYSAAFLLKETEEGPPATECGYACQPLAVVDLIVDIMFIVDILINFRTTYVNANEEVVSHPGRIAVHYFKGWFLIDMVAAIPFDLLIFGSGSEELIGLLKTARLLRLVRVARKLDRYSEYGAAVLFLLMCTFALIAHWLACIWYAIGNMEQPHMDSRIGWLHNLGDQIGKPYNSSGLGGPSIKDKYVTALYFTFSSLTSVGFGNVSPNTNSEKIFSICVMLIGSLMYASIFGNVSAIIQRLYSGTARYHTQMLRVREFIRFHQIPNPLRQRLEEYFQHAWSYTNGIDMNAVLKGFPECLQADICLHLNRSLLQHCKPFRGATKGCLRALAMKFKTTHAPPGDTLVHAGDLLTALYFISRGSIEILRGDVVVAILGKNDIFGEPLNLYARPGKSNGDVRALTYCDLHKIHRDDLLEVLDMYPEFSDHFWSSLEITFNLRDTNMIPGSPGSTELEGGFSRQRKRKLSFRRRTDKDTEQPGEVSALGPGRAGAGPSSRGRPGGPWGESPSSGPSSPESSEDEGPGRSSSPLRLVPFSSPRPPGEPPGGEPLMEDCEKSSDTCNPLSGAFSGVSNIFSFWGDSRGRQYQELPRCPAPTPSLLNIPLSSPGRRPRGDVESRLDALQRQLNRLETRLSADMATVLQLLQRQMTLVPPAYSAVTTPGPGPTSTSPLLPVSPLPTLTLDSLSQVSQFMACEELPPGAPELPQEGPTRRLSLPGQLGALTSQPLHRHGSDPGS

Take `COc1ccc(-c2c(-c3ccc(C#N)c(F)c3)nc(N3CCC(N)CC3)n(C)c2=O)cc1F` [(CC90011), reference compound]: in “Caco-2 permeability test”, the apparent permeability from apical to basolateral (Papp A→B) at 120 min amounted to 7.26 ×10⁻⁶ cm/s and the Papp B→A at 120 min was found to be 41 ×10⁻⁶ cm/s. The IC50 at CYP3A4 [1] (setting [6]) is > 50000 nM. In “Rat PK test (IV and PO)”, this compound yielded a Cl of 94.5 mL/min/kg, an F of 14.3%, an AUC(0-inf) of 132 ng·h/mL and a Cmax of 26 ng/mL. In addition, in “Rat PK test (IV and PO)”, the half-life is 2.32 h and the Vd came out at 19.1 L/kg.

As for `COc1ccc(-c2c(-c3ccc(C#N)c(F)c3)nc(N3C4CCC3CC(N)C4)n3ccnc23)cc1O` (stereo not drawn) [Example 155, 4-(5-(3-amino-8-azadicyclo[3.2.1]octane-8-yl)-8-(3-hydroxy-4-methoxyphenyl)imidazolo[1,2-c]pyrimidin-7-yl)-2-fluorobenzonitrile hydrochloride], the IC50 on LSD1 amounted to 0.2 ± 0.1 nM; at CYP3A4 [2], 18000 nM; with NCI-H1417 cells (Homo sapiens, 168 h) it was 0.352 nM.

`Cc1noc2cc(-c3sc(C(=O)N4C5CCC4CC(N)C5)nc3-c3ccc(C#N)c(F)c3)c(F)cc12` (stereo not drawn) [Example 220, 4-(2-(3-amino-8-azabicyclo[3.2.1]octane-8-carbonyl)-5-(5-fluoro-3-methylbenzo[d]isoxazol-6-yl)thiazol-4-yl)-2-fluorobenzonitrile hydrochloride]: on LSD1, the IC50 was determined as 0.42 ± 0.06 nM. Moreover, the IC50 with NCI-H1417 cells (Homo sapiens, 168 h) came out at 1.32 nM. Further, in “in vitro”, the Papp A→B at 120 min amounted to 2.3 ×10⁻⁶ cm/s, the Papp B→A at 120 min came out at 6.21 ×10⁻⁶ cm/s and the efflux ratio at 120 min came to 2.7.

As to `CS(=O)(=O)N1CCN(c2cc(CCCN[C@@H]3C[C@H]3c3ccc(F)cc3)nc(-c3ccc(C#N)cc3)n2)CC1` [Example 261, 4-(4-(3-(1R,2S)-2-(4-fluorophenyl)cyclopropyl)amino)-6-(4-(methylsulfonyl)piperazin-1-yl)pyri midin-2-yl)benzonitrile formate], in the series on Caco-2 cells (Caco-2), the “Efflux Ratio” value is 1.38. In addition, in the series with Caco-2 cells, the “Mean Papp A to B” value is 0.49 10^−6 cm/s and the “Mean Papp B to A” value is given as 0.67 10^−6 cm/s. Also, in the series with NCI-H1417 cells, the IC50 came to 3.22 nM.

With `COc1ccc(-c2cnc(N3CCC(N)CC3)c(C#N)c2-c2ccc(C#N)c(F)c2)cc1O` [Example 66, 2-(4-aminopiperidin-1-yl)-4-(4-cyano-3-fluorophenyl)-5-(3-hydroxy-4-methoxyphenyl)nicotinon itrile hydrochloride], on LSD1, the IC50 was found to be 0.2 ± 0.1 nM. In addition, the IC50 at CYP3A4 [1] (setting [6]) was 3650 nM. Also, the IC50 in series [3] (setting [7]) came out at 15500 nM. Also, in the series with NCI-H1417 cells (Homo sapiens, 168 h), the IC50 was found to be 0.2 nM. Further, in “Rat PK test (IV and PO)”, the Cl was 68.2 mL/min/kg, the F is listed as 17.7%, the AUC(0-inf) came out at 227 ng·h/mL and the Cmax is 42.5 ng/mL. Also, in “Rat PK test (IV and PO)”, the half-life is 1.96 h and the Vd was 11.3 L/kg.

For the compound `Cc1noc2cc(-c3c(-c4ccc(C#N)c(F)c4)nc(N4CCC(N)CC4)n4ccnc34)c(F)cc12` [Example 125, 4-(5-(4-aminopiperidin-1-yl)-8-(5-fluoro-3-methylbenzo[d]isoxazol-6-yl)imidazolo[1,2-c]pyrimidin-7-yl)-2-fluorobenzonitrile], in “Caco-2 permeability test”, the Papp A→B at 120 min worked out at 4.27 ×10⁻⁶ cm/s, the Papp B→A at 120 min was determined as 25 ×10⁻⁶ cm/s and the efflux ratio at 120 min is 5.84. For the same compound, the IC50 at LSD1 was determined as 0.35 ± 0.09 nM. In addition, the IC50 on CYP3A4 [1] (setting [6]) came to 49900 nM. Also, in [3] (setting [7]), the IC50 is 9520 nM. Besides, the IC50 in the series on NCI-H1417 cells (Homo sapiens, 168 h) was 0.386 nM. In “Rat PK test (IV and PO)”, this compound displayed a Cl of 60.6 mL/min/kg, an F of 21.8%, an AUC(0-inf) of 323 ng·h/mL and a Cmax of 65 ng/mL. For the same compound, in “Rat PK test (IV and PO)”, the half-life was 2.58 h and the Vd was found to be 14.7 L/kg.

For `N#CCn1ncc2cc(F)c(-c3sc(C(=O)N4C5CCC4CC(N)C5)cc3-c3ccc(C#N)c(F)c3)cc21` (stereo not drawn) [Example 215, 4-(5-(3-amino-8-azabicyclo [3.2.1]octan-8-carbonyl)-2-(1-(cyanomethyl)-5-fluoro-1H-indazol-6-yl)thiophen-3-yl)-2-fluoro-benzonitrile], the IC50 in series [4] was 11400 nM; at LSD1 it was 0.45 ± 0.05 nM; in the series with NCI-H1417 cells (Homo sapiens, 168 h) it was 4.19 nM.

On to `Cc1noc2cc(-c3c(-c4ccc(C#N)c(F)c4)nc(N4C5CCC4CC(N)C5)n4ccnc34)c(F)cc12` (stereo not drawn) [Example 118, 4-(5-(3-amino-8-azabicyclo [3.2.1]octane-8-yl)-8-(5-fluoro-3-methylbenzo[d]isoxazol-6-yl)imidazolo[1,2 c]pyrimidin-7-yl)-2-fluorobenzonitrile], for which the IC50 in series [4] was found to be 13200 nM. This compound came in with a F in series [5] (male, SD) of 12.1%. In [5], this compound had a Cl of 56.1. Further, the IC50 at LSD1 came out at 0.27 ± 0.01 nM. Besides, in the series “in vivo”, the AUC(0-inf) was 192 ng·h/mL, the highest level (Cmax) was 26.9 ng/mL, the Vd turned out to be 20 L/kg and the half-life is 4.67 h. Besides, the IC50 on CYP3A4 [2] is 8680 nM. Moreover, the IC50 in the series with NCI-H1417 cells (Homo sapiens, 168 h) was 0.6 nM.

Consider `CS(=O)(=O)N1CCN(C(=O)c2cc(CCCN[C@@H]3C[C@H]3c3ccc(F)cc3)nc(-c3ccc(-n4cccn4)cc3)n2)CC1` [Example 257, (2-(4-(1H-pyrazol-1-yl)phenyl)-6-(3-((1R,2S)-2-(4-fluorophenyl)cyclopropyl)amino)pyrimidin-4-yl)(4-(methylsulfonyl)piperazin-1-yl)methanone], for which, in the series with Caco-2 cells, the “Mean Papp A to B” value was 1.54 10^−6 cm/s and the “Mean Papp B to A” value is 4.55 10^−6 cm/s. Further, the IC50 in series [3] (setting [7]) worked out at 2830 nM.

As to `COc1ccc(-c2c(OC)cc(N3CCC(N)CC3)nc2-c2ccc(C#N)c(F)c2)cc1F` [Example 87, 4-(6-(4-aminopiperidin-1-yl)-3-(3-fluoro-4-methoxyphenyl)-4-methoxypyridin-2-yl)-2-fluoroben zonitrile], in the series “Caco-2 permeability test”, the Papp A→B at 120 min was determined as 2.97 ×10⁻⁶ cm/s, the Papp B→A at 120 min was determined as 3.35 ×10⁻⁶ cm/s and the efflux ratio at 120 min came to 1.13. Further, the IC50 on LSD1 amounted to 2.82 ± 1.49 nM. In addition, at CYP3A4 [1] (setting [6]), the IC50 stood at 6740 nM. The IC50 with NCI-H1417 cells (Homo sapiens, 168 h) stood at 3.29 nM.

Take `N#Cc1ccc(-c2nc(N3C4CCC3CC(N)C4)n3ccnc3c2-c2cc3c(cc2F)OCO3)cc1F` (stereo not drawn) [Example 175, 4-(5-(3-amino-8-azabicyclo[3.2.1]octane-8-yl)-8-(6-fluorobenzo[d] [1,3]dioxane-5- -yl)imidazolo [1,2-c]pyrimidin-7-yl)-2-fluorobenzonitrile hydrochloride]: the IC50 on LSD1 is 3.2 ± 2.1 nM; on CYP3A4 [2], 8080 nM; in the series on NCI-H1417 cells (Homo sapiens, 168 h), 4.13 nM.

Turning to `COc1ccc(-c2cnc(N3CCC(C)(N)CC3)c(C#N)c2-c2ccc(C#N)c(F)c2)cc1O` [Example 80, 2-(4-amino-4-methylpiperidin-1-yl)-4-(4-cyano-3-fluorophenyl)-5-(3-hydroxy-4-methoxyphenyl) )nicotinonitrile hydrochloride], the IC50 is 1 ± 0.4 nM at LSD1; > 10000 nM at CYP3A4 [1] (setting [6]); 9330 nM in series [3] (setting [7]); 1.22 nM in the series on NCI-H1417 cells (Homo sapiens, 168 h).

Turning to `CS(=O)(=O)N1CCN(C(=O)c2cc(CCN[C@@H]3C[C@H]3c3ccc(F)cc3)nc(-c3ccc(-n4cccn4)cc3)n2)CC1` [Example 12, (2-(4-(1H-pyrazol-1-yl)phenyl)-6-(2-(((1R,2S)-2-(4-fluorophenyl)cyclopropyl)amino)ethyl)pyrimidin-4-yl) (4-(methylsulfonyl)piperazin-1-yl)methanone], in “Caco-2 permeability test”, the Papp A→B at 120 min came to 5.95 ×10⁻⁶ cm/s, the Papp B→A at 120 min turned out to be 6.92 ×10⁻⁶ cm/s and the efflux ratio at 120 min was found to be 1.16. For the same compound, the IC50 against CYP3A4 [1] is 5590 nM. In series [3], the IC50 was found to be 4690 nM.
